Experimental data as given in patent US11603364B2, “Acyl hydrazone derivative compounds for treating disease” (Alterity Therapeutics Limited, priority 2020, dated 2023).

system: phospho-GSK-3β; test: GSK 3b assay: Zn ionophore-enhanced phosphorylation of GSK-3β (AlphaScreen SureFire Phospho-GSK 3β (Ser9) kit) in SH-SY5Y cells; format: cell-based, human; conditions: test compound 2 μM + ZnCl2 5 μM, 2 h at 37° C.
Experimental: The phosphorylation of GSK-3β is enhanced when Zn is imported into a cell by a Zn ionophore. This property was measured for the compounds of the current invention and the data presented relative to the know Zn ionophore PBT2 using the following protocol.
The human neuroblastoma SH-SY5Y cells were obtained from Cell bank Australia (Catalogue number: 94030304). SH-SY5Y cell culture was maintained in DMEM/F12+15% FBS inside an incubator at 37° C. in the presence of 5% CO2. The cells were sub-cultured once a week and the media exchanged once during the week. Cells for the assay were plated at a density of 60,000 cells/well.
Stock solutions of the samples were prepared as a 5 mM stock in DMSO and a stock solution of 1 mM ZnCl2/3 mM Glutamic acid was prepared in water. Immediately before use the compounds were diluted 1:10 with water before being added to Locke's buffer in a treatment tube. Samples were subsequently treated with either distilled water or the ZnCl2/Glutamic acid solution to yield a treatment solution which has a final concentration of the test compound at 2 μM+/−ZnCl2 at 5 μM.
The culture media was aspirated from the wells and the media replaced with the treatment solution prepared above. In addition to the relative standard (PBT2+/−ZnCl2), control wells were also included consisting of +/−ZnCl2 at 5 μM with all treatments done in triplicate. The plate was incubated at 37° C. with the treatment solution for 2 h after which time the wells were aspirated and washed with sterile PBS.
Measurement of the change of phospho-GSK-3β was determined using an AlphaScreen® SureFire® Phospho-GSK […] (Ser9) Kit with the cells being processed as per the manufacturer's instructions using an initial incubation of 2 h/24° C. and a final incubation of 16 h/24° C.
The fluorescence was measured on an Enspire plate reader. […] Representative data is presented in Table 12 using the following ranges: A<50%, B 50-<100%, C 100-<150%, D>150%.

Structure (SMILES)	GSK-Zn (signal as % of the positive standard PBT2+ZnCl2)
O=C(N/N=C1\CCCc2cccnc21)c1cc(Cl)ccc1O [Compound 11]	C (C 100-<150%)
O=C(N/N=C1\CCCc2cccnc21)c1ccccc1O [Compound 12, (E)-N′-(6,7-dihydroquinolin-8(5H)-ylidene)-2-hydroxybenzohydrazide]	B (B 50-<100%)
O=C(N/N=C1\CCCc2cccnc21)c1cccc(Cl)c1 [Compound 16]	A (A<50%)
COc1ccc(Cl)cc1C(=O)N/N=C1\CCCc2cccnc21 [Compound 17]	A (A<50%)
Cc1ccccc1C(=O)N/N=C1\CCCc2cccnc21 [Compound 18]	B (B 50-<100%)
O=C(N/N=C1\CCCc2cccnc21)c1ccc(C(F)(F)F)cc1 [Compound 20]	A (A<50%)
COc1cc(C(=O)N/N=C2\CCCc3cccnc32)ccc1O [Compound 21]	A (A<50%)
O=C(N/N=C1\CCCc2cccnc21)c1cc2ccccc2s1 [Compound 24]	A (A<50%)
O=C(N/N=C1\CCCc2cccnc21)c1cc2c(s1)-c1ccccc1OC2 [Compound 25]	B (B 50-<100%)
COc1ccc(C(=O)N/N=C2/c3ncccc3CCC2(C)C)cc1OC [Compound 26]	A (A<50%)
COc1ccc(C(=O)N/N=C2\CCc3cccnc32)cc1OC [Compound 38, (E)-N′-(5H-Cyclopenta[b]pyridin-7(6H)-ylidene)-3,4-dimethoxybenzohydrazide]	A (A<50%)
Cl.O=C(N/N=C1\CCCc2cccnc21)c1ccccc1OCCN1CCCC1 [Compound 41, (E)-N′-(6,7-Dihydroquinolin-8(5H)-ylidene)-2-(2-(pyrrolidin-1-yl)ethoxy)benzohydrazide hydrochloride]	A (A<50%)
CC/C(=N\NC(=O)c1snnc1C)c1ncccn1 [Compound 43, (E)-4-Methyl-N′-(1-(pyrimidin-2-yl)propylidene)-1,2,3-thiadiazole-5-carbohydrazide]	C (C 100-<150%)
CC/C(=N\NC(=O)c1cccc(C)c1)c1ncccn1 [Compound 44]	B (B 50-<100%)
CC/C(=N\NC(=O)c1cccc(OC)c1)c1ncccn1 [Compound 45]	C (C 100-<150%)
CC/C(=N\NC(=O)c1cccc(C)c1O)c1ncccn1 [Compound 46]	C (C 100-<150%)
Cc1cccc(C(=O)N/N=C(/c2ncccn2)C(C)C)c1 [Compound 51]	B (B 50-<100%)
COc1cccc(C(=O)N/N=C(\C)c2cccc(C)n2)c1 [Compound 64]	B (B 50-<100%)
C/C(=N\NC(=O)c1cccc(C)c1O)c1cccc(C)n1 [Compound 65]	B (B 50-<100%)
C/C(=N\NC(=O)c1ccccc1Cl)c1cccc(C)n1 [Compound 67]	C (C 100-<150%)
C/C(=N\NC(=O)c1cc2ccccc2s1)c1cc(C)ccn1 [Compound 72]	C (C 100-<150%)
C/C(=N\NC(=O)c1snnc1C)c1cc(C)ccn1 [Compound 73]	C (C 100-<150%)
C/C(=N\NC(=O)c1ccccc1C)c1cc(C)ccn1 [Compound 74]	B (B 50-<100%)
C/C(=N\NC(=O)c1cc2ccccc2s1)c1cccc(C)n1 [Compound 75]	C (C 100-<150%)
C/C(=N\NC(=O)c1ccccc1O)c1ccc2ccccc2n1 [Compound 76]	C (C 100-<150%)
COc1ccc(C(=O)N/N=C(\C)c2ccc3ccccc3n2)cc1OC [Compound 77]	C (C 100-<150%)
COc1cccc(C(=O)N/N=C(\C)c2ccc3ccccc3n2)c1 [Compound 78]	C (C 100-<150%)

Structure (SMILES)	GSK-Zn (signal as % of the positive standard PBT2+ZnCl2)
C/C(=N\NC(=O)c1cccc(C)c1)c1ccc2ccccc2n1 [Compound 81]	C (C 100-<150%)
C/C(=N\NC(=O)c1cccc(C)c1O)c1ccc2ccccc2n1 [Compound 82]	C (C 100-<150%)
COc1cc(C(=O)N/N=C(\C)c2ccc3ccccc3n2)ccc1O [Compound 87]	C (C 100-<150%)
C/C(=N\NC(=O)c1cc(Cl)ccc1O)c1ccc2ccccc2n1 [Compound 92]	C (C 100-<150%)
C/C(=N\NC(=O)c1ccccc1O)c1nc(C)cs1 [Compound 94]	C (C 100-<150%)
C/C(=N\NC(=O)c1cc(Cl)ccc1O)c1nc(C)cs1 [Compound 95]	C (C 100-<150%)
C/C(=N\NC(=O)c1snnc1C)c1nc(C)cs1 [Compound 100, (E)-4-Methyl-N′-(1-(4-methylthiazol-2-yl)ethylidene)-1,2,3-thiadiazole-5-carbohydrazide]	C (C 100-<150%)
C/C(=N\NC(=O)c1cccc(C)c1O)c1ccc(C)s1 [Compound 103]	B (B 50-<100%)
C/C(=N\NC(=O)c1ccccc1O)c1nc2ccccc2s1 [Compound 104]	D (D>150%)
C/C(=N\NC(=O)c1cccc(C)c1O)c1nc2ccccc2s1 [Compound 105]	B (B 50-<100%)
Cc1cccc(C(=O)N/N=C\c2nc(C)c(C)s2)c1 [Compound 106]	A (A<50%)
O=C(N/N=C/c1nccs1)c1cc(Cl)ccc1O [Compound 109]	B (B 50-<100%)
O=C(N/N=C/c1nc2ccccc2s1)c1cc(Cl)ccc1O [Compound 115]	A (A<50%)
Cc1cccc(C(=O)N/N=C/c2nccs2)c1O [Compound 119]	A (A<50%)
Cc1cccc(C(=O)N/N=C\c2cn3ccccc3n2)c1 [Compound 121]	A (A<50%)
Cc1cccc(C(=NNC(=O)c2ccc(N(C)C)cc2)c2cccc(C)n2)n1 [Compound 123]	C (C 100-<150%)
COc1ccc(C(=O)NN=C(c2cccc(C)n2)c2cccc(C)n2)cc1OC [Compound 126]	C (C 100-<150%)
Cc1cccc(C(=NNC(=O)c2cc(Cl)ccc2O)c2cccc(C)n2)n1 [Compound 128]	D (D>150%)
Cc1cccc(C(=NNC(=O)c2cccc(C)c2O)c2cccc(C)n2)n1 [Compound 129]	C (C 100-<150%)
COc1cc(C(=O)NN=C(c2cccc(C)n2)c2cccc(C)n2)ccc1O [Compound 130, N′-(bis(6-Methylpyridin-2-yl)methylene)-4-hydroxy-3-methoxybenzohydrazide]	A (A<50%)
COc1cccc(C(=O)NN=C(c2cccc(C)n2)c2cccc(C)n2)c1 [Compound 131]	B (B 50-<100%)
CCOc1cccc(C(=O)NN=C(c2cccc(C)n2)c2cccc(C)n2)c1 [Compound 132]	C (C 100-<150%)
Cc1cccc(C(=O)NN=C(c2cccc(C)n2)c2cccc(C)n2)c1 [Compound 133]	C (C 100-<150%)
Cc1cccc(C(=NNC(=O)c2ccccc2F)c2cccc(C)n2)n1 [Compound 134]	B (B 50-<100%)
Cc1cccc(C(=NNC(=O)c2ccccn2)c2cccc(C)n2)n1 [Compound 135]	B (B 50-<100%)
C/C(=N\NC(=O)c1cc2ccccc2s1)c1ccccn1 [Compound 146, (E)-N′-(1-(Pyridin-2-yl)ethylidene)benzo[b]thiophene-2-carbohydrazide]	C (C 100-<150%)
